This is an account of results in patent publication US10294234B2, “HIV inhibitor compounds” (priority 2017, dated 2019).

One series concerns the target recombinant HIV protease (Human immunodeficiency virus type 1 group M subtype B, UniProt P04585). Put plainly: biochemical.
The next series can be described thus: in vivo. Conditions: rat, in vivo. The procedure, abridged:
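Male SD rats (n=3/group, 0.27–0.32 kg), fasted overnight, given 0.5 or 1.0 mg/kg by 30-min IV infusion, or by oral gavage. Serial plasma samples (EDTA-K2) over 24 h measured by LC/MS/MS; non-compartmental PK analysis.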

Series [1] relates to HIV-1 (IIIB) in MT-4 cells. Put plainly: MT-4 HIV High Resolution Antiviral Assay. It is filed as cell-based. As to the method:
Compounds were tested in a high-throughput 384-well assay format for their ability to inhibit the replication of HIV-1 (IIIB) in MT-4 cells. Compounds were serially diluted (1:3) in DMSO on 384-well polypropylene plates and further diluted 200-fold into complete RPMI media (10% FBS, 1% P/S) using the Biotek Micro Flow and Agilent ECHO acoustic dispenser. Each plate contained up to 8 test compounds, with negative (No Drug Control) and 5 uM AZT positive controls. MT-4 cells were pre-infected with 10 uL of either RPMI (mock-infected) or a fresh 1:250 dilution of an HIV-1 (IIIB) concentrated virus stock. Infected and uninfected MT-4 cells were further diluted in complete RPMI media and added to each plate using a Micro Flow dispenser. After 5 days incubation in a humidified and temperature controlled incubator (37° C.), Cell Titer Glo (Promega) was added to the assay plates to quantify the amount of luciferase. EC50 and CC50 values were defined as the compound concentration that causes a 50% decrease in luminescence signal, and were calculated using a sigmoidal dose-response model to generate curve fits.
MT-4 HIV High Resolution Antiviral Assay
Assay protocol is identical to that described for the MT-4 antiviral assay with the following changes: Each drug is run in 2 series of quadruplicates with different starting concentrations for each series and 19 1.5 fold dilutions performed across the plate. […] Data is analyzed and Hill coefficients determined in Graph Pad Prism (San Diego, Calif.). EC95s were determined by the formula EC95=(19)^I/hill coefficient×EC50. HD values were determined for certain compounds and reported in Table 5 below as an illustrative example.

Experimental for recombinant HIV protease: Inhibitor potency was measured using an enzymatic assay with a fluorogenic readout. […] After a 20-minute pre-incubation, the enzymatic reaction was initiated by the addition of the fluorogenic substrate (2-aminobenzoyl)Thr-Ile-Nle-(p-nitro)Phe-Gln-Arg (Bachem) to a final concentration of 40 μM. The total volume of the assay solution was 100 µL. The reaction was measured over 20 minutes on a Tecan Infinite M1000 plate reader using an excitation wavelength of 320 nm and a detection wavelength of 420 nm. The slopes of the progress curves were the measure of reaction rates.

Turning to `COC(=O)N[C@H](C(=O)N[C@@H](Cc1ccc(C#Cc2ccc(N3CC4CCC(C3)N4C3COC3)nc2)cc1)[C@@H](O)CN(Cc1c(F)cc(-c2ccn(C(F)F)n2)cc1F)NC(=O)[C@@H](NC(=O)OC)C(C)(C)C(F)(F)F)C(C)(C)C(F)(F)F` [Example 58, Methyl ((5S,8S,9S,14S)-11-(4-(1-(difluoromethyl)-1H-pyrazol-3-yl)-2,6-difluorobenzyl)-16,16,16-trifluoro-9-hydroxy-15,15-dimethyl-8-(4-((6-(8-(oxetan-3-yl)-3,8-diazabicyclo[3.2.1]octan-3-yl)pyridin-3-yl)ethynyl)benzyl)-3,6,13-trioxo-5-(1,1,1-trifluoro-2-methylpropan-2-yl)-2-oxa-4,7,11,12-tetraazahexadecan-14-yl)carbamate], the Ki – broadly, the dissociation constant of the complex between target and ligand, obtained from inhibition or displacement – on recombinant HIV protease is 0.06 nM. The Vd (in general, the apparent volume that relates the amount in the body to the concentration in plasma or blood) in “in vivo” (male, SD, iv) amounted to 6.68 L/kg. Besides, the “RAT PO F” value in the series “in vivo” (male, SD, po, 2.5 mg/kg) came to 37.2%. Further, in “in vivo” (iv), the “RAT IV CL” value was 0.48 L/h/kg and the “RAT IV T1/2” value turned out to be 12.8 h. For the same compound, the EC50 (usually the concentration that produces a half-maximal response) in series [1] (Human immunodeficiency virus 1, IIIB, MT4, high resolution assay, 40 data points, MT-4 cells, read-out: EC50) is 6.8 nM. Also, in series [1] (calculated from Hill coefficient and EC50), the EC95 (commonly the point of the concentration-response curve where the effect stands at 95%) is 11.4 nM. This compound showed a Hill-coefficient in series [1] (high resolution assay, Graph Pad Prism) of 5.8.
